Experimental data from patent publication US20040229205A1, “Compositions for the storage of platelets” (priority 2003, published 2004).

How the values were obtained:
[1] = test system: platelets (adhesion to adventitia of human renal artery); test: Platelet adhesion assay in microflow chamber on human renal artery section; format: cell-based; conditions: 1.5 mM D-ribose solution, eight days of storage
Protocol: The ability of platelets to aggregate as a measure of function can also be assayed by ability to adhere to and […] on tissue, such as the adventitia and intima of arteries. Normal, healthy, functional platelets will show deposition and attachment onto tissue whereas compromised, poorly functional or nonfunctional platelets will have decreased levels of platelet attachment. Platelet rich plasma (PRP) was prepared from a random donor bag of platelets, which were harvested and resuspended in plasma at a concentration of at least 10^6 platelets per milliliter. On Day 1, the platelets were allowed to stand at room temperature for eight hours and were then tested in the platelet adhesion assay. Fresh frozen human renal artery was sectioned and placed flat on a microscope slide. A microflow chamber was constructed to pull PRP across the section at a defined flow rate and defined shear rate. The direction of flow is adventitia, through the media and intima and into the lumen, as illustrated in FIG. 10. Functional platelets will adhere to the adventitia and form accretion zones that initiate at the adventitia (the outside of the blood vessel) and extend across the media and intima. Non-functional platelets are unable to adhere to the adventitia. Therefore, the adhesion assay is a sensitive test of platelet function. Following the baseline test, a portion of the platelet suspension was set aside as control, without additional solution added. Another portion of the platelets were suspended in a solution containing: [table]

platelets (aggregation) = test: Platelet aggregation on thrombin challenge (optical density / aggregometer); format: cell-based
Description: Another parameter of platelet function is the ability to aggregate when challenged by an agonist. The platelet suspension is dense and milky white. Aggregation and subsequent settling of the aggregates can be estimated visually, or measured with a densitometer.
As a second measure of the effect of ribose on platelets, platelet aggregation was estimated. Platelet aggregation is a crucial function of platelet activity; platelets that cannot aggregate are essentially nonfunctional. Platelets were stored as above. The optical density of the suspension was measured before and after thrombin challenge.
Platelet aggregation was measured with a platelet aggregometer (Chronolog, Inc., Irvine, Calif.). Platelet-rich, turbid suspensions were stirred in a cuvette and the transmittance of light through the sample relative to a platelet poor blank is recorded. When a aggregating agent is added, activated platelets with exposed fibrinogen receptors (GPIIbIIIa) are brought in close contact with each other in a medium containing calcium and fibrinogen and form increasingly large platelet aggregates, accompanied by a decrease in turbidity. The change in optical density was then translated by the instrument to percent aggregation. Simple stated, as platelets clump, more light passes through the cuvette.

O=C[C@H](O)[C@H](O)[C@H](O)CO [D-Ribose]
platelet adhesion ([1]; 30 seconds of flow): very early platelet adhesion at the adventitia | platelet adhesion and accretion ([1]; 2.5 minutes of flow): significant platelet adhesion and accretion zones | platelet adhesion and accretion ([1]; 4.5 minutes of flow): formed a large platelet mass at the adventitia | platelet samples with aggressive aggregation response to 10 nM thrombin (platelets (aggregation); day 3): all five | platelet samples responding (aggregation) to 10 nM thrombin (platelets (aggregation); day five): four out of five | platelet samples able to aggregate in response to thrombin challenge (platelets (aggregation); day seven): three out of five | aggregation on thrombin challenge (platelets (aggregation); platelets stored in 150 pM D-Ribose): no aggregation | aggregation on thrombin challenge (platelets (aggregation); platelets stored in 150 nM D-Ribose): strong aggregation | aggregation on thrombin challenge (platelets (aggregation); platelets stored in 15 μM D-Ribose): very weak effect | aggregation on thrombin challenge (platelets (aggregation); platelets stored in 1.5 mM D-Ribose): no aggregation
